SMILES strings stand for the structures.

The data set can be described thus: gradient 5% acetonitrile 3 min, to 50% in 2 min, to 85% in 15 min, held 3 min, 100 µL/min. To be noted: column: Zorbax Extend-C18 2.1 x 50 mm; eluents: water / acetonitrile, 0.1% formic acid. In outline: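 Standards, all pure, were combined into mixtures of ~100 molecules and run at 100 μL/min on a Zorbax Extend-C18 column (2.1 × 50 mm, 1.8 μm) with water and acetonitrile, each containing 0.1% formic acid. A coupled quadrupole time-of-flight mass spectrometer operated in positive and negative ionization mode. Retention time values come from computationally picked adduct peaks, each inspected manually.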
In turn, `O=C(Nc1ccc(N2CCN(c3ccccc3)C2=O)nc1)c1cccnc1` displayed an RP-LC retention time of 689 s. Under `CCOC(=O)c1ccc(NC(=O)NCC(c2cccnc2)c2cn(C)c3ccccc23)cc1` (centres undefined) stands 824 s. The value for `CN1C(=O)c2cccnc2Sc2cc(NC(=O)c3ccsc3)ccc21` was 725 s; that for `O=C(c1ccccc1C(F)(F)F)N1CCN=C1SCc1cccnc1` was 590 s; that for `CCOC(=O)c1ccc(NC(=O)Cn2c(=O)nc(N3CCCC(C)C3)c3ccccc32)cc1` (centres undefined) was 872 s. Under `COc1ccc(CN2C[C@@H]3C(=O)N(CCCN4CCCC4=O)C(=O)[C@@H]3C2)cc1OC` stands 575 s; under `O=C(Nc1cc(C(F)(F)F)ccc1Cl)c1ccc(S(=O)(=O)N2CCCCC2)cc1`, 1080 s; under `COC(=O)c1cccc(C(=O)N2CCN(c3cccc(C)c3C)CC2)n1`, 916 s.

For `Cc1sc2ccn(CC(C)C)c(=O)c2c1C(=O)NC1CCN(Cc2ccccc2)CC1`, the RP-LC retention time amounted to 658 s. The compound `CCn1cnnc1C1CCCCN1S(=O)(=O)c1cccs1` (centres undefined) gave an RP-LC retention time of 694 s. The value for `CCN1c2ccccc2C(=O)NC12CCN(C(=O)c1cc(C)cc(C)c1)CC2` was 868 s; that for `CCCN(C)c1nccn2c(=O)n(CC(=O)Nc3ccc(Br)cc3)nc12` was 736 s. As for `COc1ccc(N2C(=O)CN(Cc3ccccc3C)[C@H]3CS(=O)(=O)C[C@H]32)cc1Cl`, the RP-LC retention time was 879 s. Under `CCCC1c2nccn2CCCN1C(=O)c1ocnc1C` (centres undefined) stands 558 s. Compound `Cn1cc(CN2CCC(C(=O)NCCCN3CCc4ccccc4C3)CC2)c2cc(Cl)ccc21` displayed an RP-LC retention time of 878 s. `NS(=O)(=O)c1cccnc1Nc1cccc(C(F)(F)F)c1` came in with an RP-LC retention time of 932 s. The value for `CS(=O)(=O)N1CCC(C(=O)Nc2nnc(SCc3cc(F)ccc3F)s2)CC1` was 762 s; that for `C[C@]12CC[C@H]3[C@@H](C[C@H](F)C4=CC(=O)CC[C@@]43C)[C@@H]1CC[C@@H]2O` was 798 s.

For `O=C1CCC(c2ccccc2)=NN1c1nc2ccccc2s1`, the RP-LC retention time stood at 884 s. Take `CCn1c(C(=O)N2CCOCC2)cc2c(-c3cccs3)nn(-c3ccccc3)c21`: the RP-LC retention time came to 944 s. Under `COc1ccc(N2N=NC3C(=O)N(c4ccc(F)cc4)C(=O)C32)cc1OC` (centres undefined) stands 1140 s; under `CCn1nnc2cc(-c3noc(-c4cc(OC)c(OC)c(OC)c4)n3)ccc21`, 993 s. The compound `O=C(NC1CCCCCCC1)C1CCN(C(=O)c2ncn3c2COC(c2ccc(F)cc2)C3)CC1` (centres undefined) registered an RP-LC retention time of 852 s. Regarding `COc1cccc(/C=C/C(=O)N2CCC(c3cc(N)on3)CC2)c1`, the RP-LC retention time is 716 s. `CC1CCN(C(=O)C2=CN(c3ccc(N(C)C)cc3)c3ccccc3S2(=O)=O)CC1` showed an RP-LC retention time of 978 s. As for `COC(=O)Cn1c(COc2ccccc2)nc2ccccc21`, the RP-LC retention time turned out to be 706 s. The value for `Cc1ccc(CN2CC(Oc3ccc(-c4noc(-c5cccnc5)n4)cc3)C2)o1` was 691 s. Under `Cc1cc(N2CCN(C(=O)Nc3ccccc3F)CC2)nc(N2CCOCC2)n1` stands 617 s; under `O=C(NCc1ccccc1F)C1CCN(c2cnc3nccnc3c2)CC1`, 689 s; under `O=C(NCc1ccc(F)cc1)c1ccc2c(c1)Sc1ncccc1C(=O)N2C1CC1`, 791 s.

Compound `Cc1nn(C(C)C(=O)NCCC(C)C)c(=O)c2c(C)n(-c3ccccc3)nc12` (centres undefined) had an RP-LC retention time of 948 s. The value for `COc1ccc2c(c1[N+](=O)[O-])CC[C@@H]1[C@@H]2CC[C@]2(C)C(=O)CC[C@@H]12` was 1050 s; that for `COC(=O)C1=CN(c2cc(C)ccc2OC)c2ccccc2S1(=O)=O` was 894 s. For `COc1ccc(CCN2CC(C(=O)N3CCN(C(C)C)CC3)CC2=O)cc1OC` (centres undefined), the RP-LC retention time was 553 s.

In turn, `COc1ccc(OC)c(NC(=O)c2c(N3CCCC3=O)c3cc(F)ccc3n2C)c1` had an RP-LC retention time of 785 s. Consider `COc1ccc(C(=O)N2CCCC2c2nc(-c3ccc(OC)c(OC)c3)no2)c(OC)c1` (centres undefined), for which the RP-LC retention time is 866 s. `CCSc1ccccc1C(=O)Nc1nnc(-c2ccsc2)o1` registered an RP-LC retention time of 751 s. Compound `CCc1ccc(NC(=O)CCc2c(C)n(C)c3nc(-c4ccccc4)nn3c2=O)cc1` gave an RP-LC retention time of 893 s. For `O=C(c1ccc([N+](=O)[O-])o1)N1CCN(Cc2csc(-c3ccccc3)n2)CC1`, the RP-LC retention time is 601 s. Under `COc1ccccc1C(=O)N1CCc2ccccc2[C@H]1C` stands 893 s. The value for `CCCN1C(=O)Cc2ccccc2C1C(=O)NCc1ccco1` (centres undefined) was 721 s; that for `Cc1cc(C)n(CCC(=O)N2CC[C@@H]3CN(S(C)(=O)=O)[C@@H]3C2)n1` was 594 s.

`O=C(Nc1cccc(OCc2nnc(-c3ccc(Cl)cc3)o2)c1)c1ccccn1` gave an RP-LC retention time of 1070 s. Under `O=C(C1CCCN1)N1CCC(OCc2nc(-c3ccncc3)no2)CC1` (centres undefined) stands 565 s.

With `CC(C)(C)c1noc(-c2ccnc(-n3cnc(C(=O)NC4CC4)c3)c2)n1`, the RP-LC retention time is 877 s. Under `Cn1cc(CC(=O)NCc2cccc(F)c2)c2cccnc21` stands 669 s; under `Cn1cc(C(CNC(=O)Nc2cccc(Br)c2)c2cccnc2)c2ccccc21` (centres undefined), 755 s; under `CNC(=O)N1CCCN(C2=NS(=O)(=O)C(c3ccc(F)cc3)=C2C)CC1`, 681 s. Under `O=C1CCN(C(=O)C2CCN(C(=O)c3ccoc3)CC2)CCCCCCN1` stands 612 s; under `Cc1cccc(NC(=O)C(=O)NCCc2cccs2)n1`, 788 s; under `CCc1ccc(S(=O)(=O)Nc2ccc3nc(N4CCN(CC)CC4)cc(C(=O)O)c3c2)cc1`, 610 s.

Regarding `CN1C2CCC1CC(OC(c1ccc(F)cc1)c1ccc(F)cc1)C2` (centres undefined), the RP-LC retention time was found to be 838 s.

For the compound `Cn1c(=O)c2nscc2n(CC(=O)NC2CCCCC2)c1=O`, the RP-LC retention time stood at 664 s. The value for `O=C(NCc1ccco1)N1CCN(c2nc3ccccc3nc2C(F)(F)F)CC1` was 954 s; that for `COc1cccc(-c2noc(C3CC(=O)N(c4ccc(F)cc4)C3)n2)c1OC` (centres undefined) was 885 s; that for `CC(=O)Nc1nc2ccc(CC(=O)Nc3cccc(Cl)c3)cc2s1` was 790 s. `Cc1ccc(CN(CC(=O)N2CCNCC2)C(=O)c2sccc2C)cc1C` came in with an RP-LC retention time of 669 s. The value for `CC1CCN(CCNc2ncccc2-c2nnc(-c3ccc(Cl)cc3)o2)CC1` was 813 s; that for `CCOc1ccc(NC(=O)c2cnc3c(c2)c(=O)n(C)c(=O)n3-c2ccc(OC)cc2)cc1` was 901 s.

(Values after the METLIN SMRT retention time set (Domingo-Almenara et al. 2019).)
